We go through 16 compounds from US9434738B2, “Macrocyclic benzofuran and azabenzofuran compounds for the treatment of hepatitis C” (BRISTOL-MYERS SQUIBB COMPANY, priority 2013, dated 2016).

In data set [1] the test system is genotype 1b HCV replicon in Huh-7 cells. Nature of the data set: HCV replicon luciferase assay, genotype 1b. The data set is classed as cell-based. To be noted: Hepatitis C virus, 72 h, Huh-7, Renilla luciferase, 3 days; for pEC50: read-out: EC50 1b (class); for EC50: read-out: EC50 (uM) 1b. The method, then: Cell lines. The cell lines used to evaluate compounds consist of a human hepatocyte derived cell line (Huh-7) that constitutively expresses a genotype 1a or 1b HCV replicon containing a Renilla luciferase reporter gene. These cells were maintained in Dulbecco's modified Eagle medium (DMEM) containing 10% FBS, 100 U/mL penicillin/streptomycin and 1.0 mg/mL G418.
HCV Replicon Luciferase Assay.
To evaluate compound efficacy, HCV replicon cells were seeded in 96-well plates in DMEM containing 10% FBS at a cell density of 10^4/well. Following incubation at 37° C. overnight, compounds serially diluted in DMSO were added to the cell plates. Alternatively, titrated compounds were transferred to sterile 384-well tissue-culture treated plates and the plates seeded with 50 μL of cells at a density of 2.4×10^3 cells/well in DMEM containing 4% FCS (final DMSO concentration at 0.5%). After 3 days incubation at 37° C., cells were analyzed for Renilla Luciferase activity using the EnduRen substrate (Promega cat #E6485) according to the manufacturer's directions. Briefly, the EnduRen substrate was diluted in DMEM and then added to the plates to a final concentration of 7.5 μM. The plates were incubated for at least 1 h at 37° C. then read on a TopCount NXT Microplate Scintillation and Luminescence Counter (Packard) or Viewlux Imager (PerkinElmer) using a luminescence program. The 50% effective concentration (EC50) was calculated using the exponential form of the median effect equation where EC50=100−[(δFinh/δFcon)×100].
On the technique in general: A replicon is a self-replicating genome or part of one, used to study replication in cells.

Another data set concerns HCV RNA levels. The settings on record: cited from earlier work.
In another data set the test system is HCV. To be noted: combination therapy; cited from earlier work.

pEC50: −log10 of the molar value. Read-outs that look alike come from different tables or passages of the source. A value given as a limit tells only on which side of the number the result lay.

Usually pEC50 stands for the negative decadic logarithm of the EC50, by convention in mol/L. Usually EC50 stands for the concentration that produces a half-maximal response. With `CNC(=O)c1c(-c2ccc(F)cc2)oc2cc3c(cc12)-c1cc(C(=O)NC(C)(C)C)cc(c1)N(S(C)(=O)=O)CCCCN3S(C)(=O)=O` [Compound 1001], in data set [1], the pEC50 is 6.00 to 7.00 and the half-maximal effective concentration (EC50) amounted to 0.171 µM. For the compound `CNC(=O)c1c(-c2ccc(F)cc2)oc2cc3c(cc12)-c1cc(C(=O)NC(C)(C)C)cc(c1)N(S(C)(=O)=O)CCCCCN3S(C)(=O)=O` [Compound 1002], the negative logarithm of the EC50 (pEC50) in data set [1] is 6.00 to 7.00. Same read-out and setting: with `CNC(=O)c1c(-c2ccc(F)cc2)oc2cc3c(cc12)-c1cc(C(=O)NC(C)(C)C)cc(c1)N(S(C)(=O)=O)CCCCCCN3S(C)(=O)=O` [Compound 1003] the figure was 6.00 to 7.00. Consider `CNC(=O)c1c(-c2ccc(F)cc2)oc2cc3c(cc12)-c1cc(C(=O)NC(C)(C)C)cc(c1)N(S(C)(=O)=O)CCCCCCCN3S(C)(=O)=O` [Compound 1004], for which, in data set [1], the pEC50 was more than 7.00 and the EC50 is 0.0477 µM. For `CNC(=O)c1c(-c2ccc(F)cc2)oc2cc3c(cc12)-c1cc(C(=O)NC(C)(C)C)cc(c1)N(S(C)(=O)=O)CCCCCCCCN3S(C)(=O)=O` [Compound 1005], the pEC50 in data set [1] is 6.00 to 7.00.

As to `CNC(=O)c1c(-c2ccc(F)cc2)oc2cc3c(cc12)-c1cc(C(=O)NC(C)(C)C)cc(c1)N(S(C)(=O)=O)CCc1ccc(cc1)CCN3S(C)(=O)=O` [Compound 1006], in data set [1], the pEC50 is less than 6.00 and the EC50 came out at 1.21 µM. Turning to `CNC(=O)c1c(-c2ccc(F)cc2)oc2cc3c(cc12)-c1cc(cc(C(=O)NC(C)(C)C)c1)NC(=O)CCCCC(=O)N3` [Compound 1051], the negative-log EC50 (pEC50) in data set [1] is less than 6.00. For `CNC(=O)c1c(-c2ccc(F)cc2)oc2cc3c(cc12)-c1cc(cc(C(=O)NC(C)(C)C)c1)NC(=O)CCCCCCCCC(=O)N3` [Compound 1052], in data set [1], the pEC50 is 6.00 to 7.00 and the EC50 was determined as 0.789 µM. Take `CNC(=O)c1c(-c2ccc(F)cc2)oc2cc3c(cc12)-c1cc(cc(C(=O)NC(C)(C)C)c1)NC(=O)CCCCCCCCCCC(=O)N3` [Compound 1053]: the pEC50 in data set [1] is 6.00 to 7.00. Same read-out and setting: with `CNC(=O)c1c(-c2ccc(F)cc2)oc2cc3c(cc12)-c1cc(cc(C(=O)NC(C)(C)C)c1)NC(=O)OCCOC(=O)N3` [Compound 1054] the figure was less than 6.00; with `CNC(=O)c1c(-c2ccc(F)cc2)oc2cc3c(cc12)-c1cc(cc(C(=O)NC(C)(C)C)c1)NC(=O)OCCOCCOC(=O)N3` [Compound 1055], less than 6.00. For `CNC(=O)c1c(-c2ccc(F)cc2)oc2cc3c(cc12)-c1cc(cc(C(=O)NC(C)(C)C)c1)NC(=O)OCCOCCOCCOC(=O)N3` [Compound 1056], in data set [1], the pEC50 is less than 6.00 and the EC50 is 8.34 µM. Regarding `CNC(=O)c1c(-c2ccc(F)cc2)oc2cc3c(cc12)-c1cc(cc(C(=O)NC(C)(C)C)c1)NC(=S)NCCCCNC(=S)N3` [Compound 1057], in data set [1], the pEC50 was less than 6.00. On the same count and under the same terms, with `CNC(=O)c1c(-c2ccc(F)cc2)oc2cc3c(cc12)-c1cc(cc(C(=O)NC(C)(C)C)c1)NC(=S)NCCCCCCCCNC(=S)N3` [Compound 1058] the figure was less than 6.00.

Take `CNC(=O)c1c(-c2ccc(F)cc2)oc2cc(N(CCO)S(C)(=O)=O)c(C3CC3)cc12` [HCV-796]: the hepatic toxicity result in the data set on HCV RNA levels (extended dosing of the combination regimens) is on record as “hepatic toxicity observed”. Moreover, the “HCV RNA levels in patients” value in the data set with HCV RNA levels (patients, single agent or combined with interferon and ribavirin) was “reduce HCV RNA levels”. As for alpha-interferon and ribavirin, the sustained efficacy in the data set with HCV is on record as 40 % of patients.
